Measured values reported in article PMC5218480 (PLoS ONE, 2017).

Test system: MV-4-11 cells
Experiment: Gene expression microarray analysis (Affymetrix PrimeView) and GSEA
Assay type: cell-based, human
Design: RFU PODN (11730768_x_at) / Fold change /veh PODN (11730768_x_at) / RFU LINC00158 (11744669_a_at) / Fold change /veh LINC00158 (11744669_a_at) / RFU DUSP10 (11751237_a_at) / Fold change /veh DUSP10 (11751237_a_at) / RFU ID3 (11757404_x_at) / Fold change /veh ID3 (11757404_x_at) / RFU PLEKHG5 (11737974_s_at) / Fold change /veh PLEKHG5 (11737974_s_at) / RFU LRRC4B (11730491_at) / Fold change /veh LRRC4B (11730491_at) / RFU GIMAP4 (11747438_a_at) / Fold change /veh GIMAP4 (11747438_a_at) / RFU KRT8 (11758183_x_at) / Fold change /veh KRT8 (11758183_x_at) / RFU CNN1 (11734310_a_at) / Fold change /veh CNN1 (11734310_a_at) / RFU VPS37D (11726825_at) / Fold change /veh VPS37D (11726825_at) / RFU C10orf10 (11716522_x_at) / Fold change /veh C10orf10 (11716522_x_at) / RFU KIR2DL2 /// KIR2DL4 /// KIR2DL5A /// KIR2DL5B /// KIR2DS1 /// KIR2DS2 /// KIR2DS3 /// KIR2DS4 /// KIR3DL3 /// KIR3DL3 /// KIR3DS1 (11738374_at) / Fold change /veh KIR2DL2 /// KIR2DL4 /// KIR2DL5A /// KIR2DL5B /// KIR2DS1 /// KIR2DS2 /// KIR2DS3 /// KIR2DS4 /// KIR3DL3 /// KIR3DL3 /// KIR3DS1 (11738374_at) / RFU C1QL1 (11718748_at) / Fold change /veh C1QL1 (11718748_at) / RFU TMPRSS4 (11747572_a_at) / Fold change /veh TMPRSS4 (11747572_a_at) / RFU HAMP (11756126_x_at) / Fold change /veh HAMP (11756126_x_at) / RFU RNFT2 (11725882_a_at) / Fold change /veh RNFT2 (11725882_a_at) / RFU NR4A2 (11747474_a_at) / Fold change /veh NR4A2 (11747474_a_at) / RFU ABCC12 (11746883_a_at) / Fold change /veh ABCC12 (11746883_a_at) / RFU TMEM136 (11760407_x_at) / Fold change /veh TMEM136 (11760407_x_at) / RFU CLDN22 /// WWC2 (11732394_at) / Fold change /veh CLDN22 /// WWC2 (11732394_at) / RFU HLA-DPB1 (11760878_x_at) / Fold change /veh HLA-DPB1 (11760878_x_at) / RFU SPINT1 (11716480_a_at) / Fold change /veh SPINT1 (11716480_a_at) / RFU GAP43 (11754022_s_at) / Fold change /veh GAP43 (11754022_s_at) / RFU A4GNT (11735810_at) / Fold change /veh A4GNT (11735810_at) / RFU PRB3 (11715151_x_at) / Fold change /veh PRB3 (11715151_x_at) / RFU TUBB4B (11761932_at) / Fold change /veh TUBB4B (11761932_at) / RFU CAPN14 (11732068_a_at) / Fold change /veh CAPN14 (11732068_a_at) / RFU TMCC2 (11721928_a_at) / Fold change /veh TMCC2 (11721928_a_at) / RFU IRGQ (11745062_a_at) / Fold change /veh IRGQ (11745062_a_at) / RFU FAM174B (11720279_a_at) / Fold change /veh FAM174B (11720279_a_at) / RFU TMPRSS4 (11748680_a_at) / Fold change /veh TMPRSS4 (11748680_a_at) / RFU FAM212B (11763350_a_at) / Fold change /veh FAM212B (11763350_a_at) / RFU PLEKHG5 (11743358_a_at) / Fold change /veh PLEKHG5 (11743358_a_at) / RFU ZSCAN30 (11745921_a_at) / Fold change /veh ZSCAN30 (11745921_a_at) / RFU CMKLR1 (11741424_a_at) / Fold change /veh CMKLR1 (11741424_a_at) / RFU LOC101060620 /// MAPK8IP1 (11723275_at) / Fold change /veh LOC101060620 /// MAPK8IP1 (11723275_at) / RFU SPTSSB (11747773_x_at) / Fold change /veh SPTSSB (11747773_x_at) / RFU PRSS12 (11739890_at) / Fold change /veh PRSS12 (11739890_at) / RFU BIN1 (11741810_x_at) / Fold change /veh BIN1 (11741810_x_at) / RFU WNT11 (11732464_a_at) / Fold change /veh WNT11 (11732464_a_at) / RFU C10orf10 (11716521_a_at) / Fold change /veh C10orf10 (11716521_a_at) / RFU C5orf56 (11738089_at) / Fold change /veh C5orf56 (11738089_at) / RFU CYB561 (11721691_x_at) / Fold change /veh CYB561 (11721691_x_at) / RFU ANKRD19P (11752326_a_at) / Fold change /veh ANKRD19P (11752326_a_at) / RFU OR2T12 /// OR2T33 /// OR2T8 (11738714_s_at) / Fold change /veh OR2T12 /// OR2T33 /// OR2T8 (11738714_s_at) / RFU VCAN (11748164_a_at) / Fold change /veh VCAN (11748164_a_at) / RFU JSRP1 (11732532_at) / Fold change /veh JSRP1 (11732532_at) / RFU KRTAP10-11 (11738290_x_at) / Fold change /veh KRTAP10-11 (11738290_x_at) / RFU MYO3A (11730013_a_at) / Fold change /veh MYO3A (11730013_a_at) / RFU EBF3 (11725865_a_at) / Fold change /veh EBF3 (11725865_a_at) / RFU CAMK2N1 (11719241_x_at) / Fold change /veh CAMK2N1 (11719241_x_at) / RFU C5orf56 (11738088_a_at) / Fold change /veh C5orf56 (11738088_a_at) / RFU OLFML3 (11715873_a_at) / Fold change /veh OLFML3 (11715873_a_at) / RFU LOC100653217 /// NTM (11731650_a_at) / Fold change /veh LOC100653217 /// NTM (11731650_a_at) / RFU MAPK11 (11762145_a_at) / Fold change /veh MAPK11 (11762145_a_at) / RFU FIZ1 (11724087_x_at) / Fold change /veh FIZ1 (11724087_x_at) / RFU OASL (11726364_x_at) / Fold change /veh OASL (11726364_x_at) / RFU SOX15 (11748057_x_at) / Fold change /veh SOX15 (11748057_x_at) / RFU CD79A (11719716_a_at) / Fold change /veh CD79A (11719716_a_at) / RFU HIST1H1D (11736915_at) / Fold change /veh HIST1H1D (11736915_at) / RFU CASKIN2 (11723855_a_at) / Fold change /veh CASKIN2 (11723855_a_at) / RFU LOC730098 (11760151_x_at) / Fold change /veh LOC730098 (11760151_x_at) / RFU OR4N2 (11742367_at) / Fold change /veh OR4N2 (11742367_at) / RFU PRRT2 (11749266_a_at) / Fold change /veh PRRT2 (11749266_a_at) / RFU SNX32 (11753110_a_at) / Fold change /veh SNX32 (11753110_a_at) / RFU CDHR5 (11726645_a_at) / Fold change /veh CDHR5 (11726645_a_at) / RFU RCAN1 (11760418_a_at) / Fold change /veh RCAN1 (11760418_a_at) / RFU FAM167A (11723789_a_at) / Fold change /veh FAM167A (11723789_a_at) / RFU FAM26E (11764081_at) / Fold change /veh FAM26E (11764081_at) / RFU ISYNA1 (11749810_s_at) / Fold change /veh ISYNA1 (11749810_s_at) / RFU ACY1 (11761880_at) / Fold change /veh ACY1 (11761880_at) / RFU 11764098_at / Fold change /veh 11764098_at / RFU SAMD14 (11745864_x_at) / Fold change /veh SAMD14 (11745864_x_at) / RFU NPB (11741838_a_at) / Fold change /veh NPB (11741838_a_at) / RFU TMPRSS6 (11731388_a_at) / Fold change /veh TMPRSS6 (11731388_a_at) / RFU KRTAP10-2 (11738614_at) / Fold change /veh KRTAP10-2 (11738614_at) / RFU ARHGAP8 /// PRR5-ARHGAP8 (11727945_x_at) / Fold change /veh ARHGAP8 /// PRR5-ARHGAP8 (11727945_x_at) / RFU KRTAP5-7 /// NADSYN1 (11734609_at) / Fold change /veh KRTAP5-7 /// NADSYN1 (11734609_at) / RFU RASL12 (11751679_a_at) / Fold change /veh RASL12 (11751679_a_at) / RFU CDKN2B (11736163_a_at) / Fold change /veh CDKN2B (11736163_a_at) / RFU PRF1 (11729649_at) / Fold change /veh PRF1 (11729649_at) / RFU, ZNF638 /// ZNF638-IT1 / Fold change vs veh, ZNF638 /// ZNF638-IT1 / RFU, PANK3 / Fold change vs veh, PANK3 / RFU, SH3YL1 / Fold change vs veh, SH3YL1 / RFU, ZEB2 / Fold change vs veh, ZEB2 / RFU, NRIP1 / Fold change vs veh, NRIP1 / RFU, PTTG1IP / Fold change vs veh, PTTG1IP / RFU, CAPN2 / Fold change vs veh, CAPN2 / RFU, MED14 / Fold change vs veh, MED14 / RFU, SNORA58 / Fold change vs veh, SNORA58 / RFU, C1orf63 / Fold change vs veh, C1orf63 / RFU, LRRFIP1 / Fold change vs veh, LRRFIP1 / RFU, NDUFAF7 / Fold change vs veh, NDUFAF7 / RFU, SLC12A2 / Fold change vs veh, SLC12A2 / RFU, IBTK / Fold change vs veh, IBTK / RFU, ESF1 / Fold change vs veh, ESF1 / Fold change vs veh, TMEM50B / RFU, TAOK1 / Fold change vs veh, TAOK1 / RFU, ACBD3 / Fold change vs veh, ACBD3 / RFU, TMA16 / Fold change vs veh, TMA16 / RFU, RWDD3 / Fold change vs veh, RWDD3 / RFU, BCAT1 / Fold change vs veh, BCAT1 / RFU, EDEM3 / Fold change vs veh, EDEM3 / RFU, TMEM33 / Fold change vs veh, TMEM33 / RFU, WDR75 / Fold change vs veh, WDR75 / RFU, AHCTF1 / Fold change vs veh, AHCTF1 / RFU, TFRC / Fold change vs veh, TFRC / RFU, ZDHHC17 / Fold change vs veh, ZDHHC17 / RFU, NOM1 / Fold change vs veh, NOM1 / RFU, ARL8B / Fold change vs veh, ARL8B / RFU, ZBTB11 / Fold change vs veh, ZBTB11 / RFU, TAMM41 / Fold change vs veh, TAMM41 / RFU, KIAA1704 /// LOC100996395 / Fold change vs veh, KIAA1704 /// LOC100996395 / RFU, ING1 / Fold change vs veh, ING1 / RFU, TRMT61B / Fold change vs veh, TRMT61B / RFU, FUBP3 / Fold change vs veh, FUBP3 / RFU, TP53 / Fold change vs veh, TP53 / RFU, TNKS2 / Fold change vs veh, TNKS2 / RFU, ZFP14 / Fold change vs veh, ZFP14 / RFU, ACTR2 / Fold change vs veh, ACTR2 / RFU, PPP3R1 / Fold change vs veh, PPP3R1 / RFU, PIK3R1 / Fold change vs veh, PIK3R1 / RFU, HNRNPA1 / Fold change vs veh, HNRNPA1 / RFU, RNF170 / Fold change vs veh, RNF170 / RFU, ZNF28 / Fold change vs veh, ZNF28 / RFU, RNGTT / Fold change vs veh, RNGTT / RFU, OGT / Fold change vs veh, OGT / RFU, BRD1 / Fold change vs veh, BRD1 / RFU, MARS / Fold change vs veh, MARS / RFU, ZNF655 / Fold change vs veh, ZNF655 / RFU, FAHD1 / Fold change vs veh, FAHD1 / RFU, BDP1 / Fold change vs veh, BDP1 / RFU, LRRCC1 / Fold change vs veh, LRRCC1 / RFU, ARID1A / Fold change vs veh, ARID1A / RFU, ZNF146 / Fold change vs veh, ZNF146 / RFU, ZNF330 / Fold change vs veh, ZNF330 / RFU, GPN3 / Fold change vs veh, GPN3 / RFU, C9orf123 / Fold change vs veh, C9orf123 / RFU, N4BP2L2 / Fold change vs veh, N4BP2L2 / RFU, ARFIP1 / Fold change vs veh, ARFIP1 / RFU, FAM179B / Fold change vs veh, FAM179B / RFU, BCL10 / Fold change vs veh, BCL10 / RFU, UHRF1BP1L / Fold change vs veh, UHRF1BP1L / RFU, BET1 / Fold change vs veh, BET1 / RFU, CNOT2 / Fold change vs veh, CNOT2 / RFU, ZNF268 / Fold change vs veh, ZNF268 / Fold change vs veh, ZNF507 / RFU, DGCR2 / Fold change vs veh, DGCR2 / RFU, WDSUB1 / Fold change vs veh, WDSUB1 / Fold change vs veh, HSP90B1 /// MIR3652 / RFU, ADSS / Fold change vs veh, ADSS / RFU, GK / Fold change vs veh, GK / RFU, ZNF148 / Fold change vs veh, ZNF148 / RFU, TAF9 / Fold change vs veh, TAF9 / RFU, SLC1A5 / Fold change vs veh, SLC1A5 / RFU, SLMO2 / Fold change vs veh, SLMO2 / RFU, ABCC4 / Fold change vs veh, ABCC4 / RFU, LOC101060439 /// RAP1B / Fold change vs veh, LOC101060439 /// RAP1B / RFU, RFX7 / Fold change vs veh, RFX7 / RFU, GTPBP10 / Fold change vs veh, GTPBP10 / RFU, CNEP1R1 / Fold change vs veh, CNEP1R1 / RFU, BIVM-ERCC5 /// ERCC5 / Fold change vs veh, BIVM-ERCC5 /// ERCC5 / RFU, ILF3 / Fold change vs veh, ILF3 / RFU 11762660_at / Fold change /veh 11762660_at / RFU VCAN (11757783_s_at) / Fold change /veh VCAN (11757783_s_at) / RFU DDX43 (11728927_at) / Fold change /veh DDX43 (11728927_at) / RFU KRT8 (11758188_x_at) / Fold change /veh KRT8 (11758188_x_at) / RFU NKD1 (11759106_at) / Fold change /veh NKD1 (11759106_at) / RFU SRD5A1 (11742802_a_at) / Fold change /veh SRD5A1 (11742802_a_at) / RFU TPSAB1 /// TPSB2 (11721975_s_at) / Fold change /veh TPSAB1 /// TPSB2 (11721975_s_at) / RFU GSTM3 (11746129_a_at) / Fold change /veh GSTM3 (11746129_a_at) / RFU IL23R (11737362_x_at) / Fold change /veh IL23R (11737362_x_at) / RFU TMEM51 (11727254_a_at) / Fold change /veh TMEM51 (11727254_a_at) / RFU PIWIL2 (11732686_x_at) / Fold change /veh PIWIL2 (11732686_x_at) / RFU ORM1 (11744905_x_at) / Fold change /veh ORM1 (11744905_x_at) / RFU CCDC152 (11743942_at) / Fold change /veh CCDC152 (11743942_at) / RFU ECM1 (11717891_a_at) / Fold change /veh ECM1 (11717891_a_at) / RFU IL23R (11748794_a_at) / Fold change /veh IL23R (11748794_a_at) / RFU TNFAIP8L3 (11732012_x_at) / Fold change /veh TNFAIP8L3 (11732012_x_at) / RFU MBOAT4 (11741988_at) / Fold change /veh MBOAT4 (11741988_at) / RFU 11764193_at / Fold change /veh 11764193_at / RFU TMEM53 (11763286_at) / Fold change /veh TMEM53 (11763286_at) / RFU MAGEB2 (11727129_at) / Fold change /veh MAGEB2 (11727129_at) / RFU TMEM200A (11744735_a_at) / Fold change /veh TMEM200A (11744735_a_at) / RFU CCDC152 (11751479_a_at) / Fold change /veh CCDC152 (11751479_a_at) / RFU FAM211A (11726209_a_at) / Fold change /veh FAM211A (11726209_a_at) / RFU RGS16 (11746705_a_at) / Fold change /veh RGS16 (11746705_a_at) / RFU VCAN (11755009_s_at) / Fold change /veh VCAN (11755009_s_at) / RFU RHOB (11743442_s_at) / Fold change /veh RHOB (11743442_s_at) / RFU RGS16 (11720943_a_at) / Fold change /veh RGS16 (11720943_a_at) / RFU RGS16 (11720944_at) / Fold change /veh RGS16 (11720944_at) / RFU, VPS4B / Fold change vs veh, VPS4B / RFU, CREB1 / Fold change vs veh, CREB1 / RFU, DNAJC13 / Fold change vs veh, DNAJC13 / RFU, GNAQ / Fold change vs veh, GNAQ / RFU, CDK5R1 / Fold change vs veh, CDK5R1 / RFU, ZRANB3 / Fold change vs veh, ZRANB3 / RFU, CUL4A / Fold change vs veh, CUL4A / RFU, CCNY / Fold change vs veh, CCNY / RFU, UFL1 / Fold change vs veh, UFL1 / RFU, COG3 / Fold change vs veh, COG3 / RFU, DIAPH2 / Fold change vs veh, DIAPH2 / RFU, SKA2 / Fold change vs veh, SKA2 / RFU, AFF3 / Fold change vs veh, AFF3 / RFU, LMF1 / Fold change vs veh, LMF1 / RFU, IPO11 / Fold change vs veh, IPO11 / RFU, DFFB / Fold change vs veh, DFFB / RFU, FOXP1 / Fold change vs veh, FOXP1 / RFU, CARD8 / Fold change vs veh, CARD8 / RFU, STRN3 / Fold change vs veh, STRN3 / RFU, ADK / Fold change vs veh, ADK / RFU, RASSF2 / Fold change vs veh, RASSF2 / RFU, WIPF1 / Fold change vs veh, WIPF1 / RFU, LARP1B / Fold change vs veh, LARP1B / RFU, RASA1 / Fold change vs veh, RASA1 / RFU, RB1 / Fold change vs veh, RB1 / RFU, PPFIA1 / Fold change vs veh, PPFIA1 / RFU, MAT2A / Fold change vs veh, MAT2A / RFU, CCT5 / Fold change vs veh, CCT5 / RFU, WDR92 / Fold change vs veh, WDR92 / RFU, CUX1 / Fold change vs veh, CUX1 / RFU, TTC7A / Fold change vs veh, TTC7A / RFU, TMEM135 / Fold change vs veh, TMEM135 / RFU, DEPTOR / Fold change vs veh, DEPTOR / RFU, CPM / Fold change vs veh, CPM / RFU, DNAJB6 / Fold change vs veh, DNAJB6 / RFU, CACNA2D3 / Fold change vs veh, CACNA2D3 / RFU, DTX4 / Fold change vs veh, DTX4 / RFU, TFCP2 / Fold change vs veh, TFCP2 / RFU, GMCL1 /// GMCL1P1 / Fold change vs veh, GMCL1 /// GMCL1P1 / RFU, AEBP2 / Fold change vs veh, AEBP2 / RFU, SNHG1 /// SNORD22 /// SNORD25 /// SNORD26 /// SNORD27 /// SNORD28 /// SNORD29 /// SNORD31 / Fold change vs veh, SNHG1 /// SNORD22 /// SNORD25 /// SNORD26 /// SNORD27 /// SNORD28 /// SNORD29 /// SNORD31 / Fold change (Aza/veh), C12orf56 (ProbeSet 11735607_a_at) / Fold change (ACY-1035/veh), C12orf56 (ProbeSet 11735607_a_at) / Fold change (Aza/veh), FGFR1OP (ProbeSet 11751329_s_at) / Fold change (ACY-1035/veh), FGFR1OP (ProbeSet 11751329_s_at) / Fold change (Aza/veh), VPS36 (ProbeSet 11739960_a_at) / Fold change (ACY-1035/veh), VPS36 (ProbeSet 11739960_a_at) / RFU SYPL1 (11715823_x_at) / Fold change /veh SYPL1 (11715823_x_at) / RFU IGFBP7 (11715501_s_at) / Fold change /veh IGFBP7 (11715501_s_at) / RFU REEP3 (11722064_at) / Fold change /veh REEP3 (11722064_at) / RFU IGLL1 (11728026_x_at) / Fold change /veh IGLL1 (11728026_x_at): dose or concentration left out as unconfirmed
Conditions: MV-4-11 cells, 48 hours

Which “RFU PRRT2 (11749266_a_at)” value does the source give for `Nc1ncn([C@@H]2O[C@H](CO)[C@@H](O)[C@H]2O)c(=O)n1` [azacitidine] here?
Its value is 42.08 RFU.
